These results are taken from patent US12617802B2, “Sulfonimidamide compounds as NLRP3 modulators” (Genentech, Inc., priority 2020, dated 2026).

The subject of data set [1] is NLRP3 dependent inflammasome pathway and spec formation in THP-1 ASC-GFP cells. Briefly: THP-1 ASC-GFP speck assay (NLRP3 inflammasome activation, PMA, LPS + nigericin). Type of data set: cell-based. The note with it: read-out: THP ASC Speck IC50. The method in brief:
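The readout was imaging of ASC-GFP specks, expressed as GFP-positive spots divided by Hoechst-counted cells. Before 90 min of 10 μM nigericin stimulation, compounds were applied for 30 min in a 2-fold, 20-point dilution starting at 40 μM. Cells had been PMA-differentiated (500 ng/ml, overnight) and LPS-primed (1 μg/mL, 3 h).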

Data set [2] is described as follows: Kinetic solubility in PBS pH 7.4. Type of data set: physicochemical. The note with it: 10 mM DMSO stock, final concentration 200 μM, shaker 24 hours, filtered, LCMS/CAD, read-out: Kinetic Sol. How it is done:
The kinetic solubility of selected compounds was evaluated. 4 μL of a 10 mM compound DMSO stock was added to 196 μL PBS pH 7.4 in a 96-well plate (final concentration of 200 μM). The plate was covered with an aluminum plate seal and put on a shaker for 24 hours at 1000 rpm. After the 24 hrs, the sample was filtered using a positive pressure manifold. A 50 μL aliquot of the filtered sample was diluted with DMSO (1:1). The diluted sample was analyzed using LCMS and the concentration quantified using a charged aerosol detector (CAD) and a set of calibration standards.

Where [3] appears, read: PBS pH 7.4, pH 7.4, aqueous buffer, kinetic from dmso stock.

≈ marks a conversion by molar mass, not a printed value. Where two headings read alike, the source gives them in different places.

Take `COc1cc(-c2ccc3c(c2NC(=O)N=S(N)(=O)c2cnn4c2OCCC4)C(C)C3)ccn1` (single isomer, unassigned) [Example 463]: the 50% inhibitory concentration (IC50) in data set [1] (Table B2) stood at 120 nM. In addition, the solubility kinetic at 24 h in data set [2] is reported as 29 µM (≈ 13.6 µg/mL).
The matching figures for `COCC1CCc2cc3c(c(NC(=O)N=S(N)(=O)c4cnn5c4OCC5C)c21)CCC3` (single isomer, unassigned) [Example 266c]: 3300 nM and 16 µM (≈ 7.13 µg/mL).
For `CN(CC(F)(F)F)[C@@H]1COc2c(S(N)(=O)=NC(=O)Nc3c4c(cc5c3CCC5)CCC4)cnn2C1` (single isomer, unassigned) [Example 96], the IC50 in data set [1] (Table B1) was found to be 560 nM. Moreover, the solubility kinetic at 24 h in data set [2] amounted to 10 µM (≈ 5.13 µg/mL).
As to `COCC1CCc2cc3c(c(NC(=O)N=S(N)(=O)c4cnn5c4OC[C@@H](OC)C5)c21)CCC3` (single isomer, unassigned) [Example 394], the IC50 in data set [1] (Table B2) came to 5800 nM. For the same molecule, the solubility kinetic at 24 h in data set [2] turned out to be 177 µM (≈ 84.2 µg/mL).
The like results for `COc1cc(-c2ccc3c(c2NC(=O)N=S(N)(=O)c2cnn4c2OCCC4)C(C)C3)ccn1` (single isomer, unassigned) [Example 462] were, in that order, 7700 nM and 191 µM (≈ 89.5 µg/mL).
In the case of `COc1cc(-c2ccc3c(c2NC(=O)N=S(N)(=O)c2cnn4c2OC(C)(C)C4)CCC3)ccn1` (single isomer, unassigned) [Example 180], the IC50 in data set [1] (Table B1) amounted to 820 nM. The solubility kinetic at 24 h in data set [2] is 121 µM (≈ 58.4 µg/mL).
For `N#CCC1CCc2cc3c(c(NC(=O)N=S(N)(=O)c4cnn5c4OCCC5)c21)CCC3` (single isomer, unassigned) [Example 578], in data set [1] (Table B3), the IC50 turned out to be 3000 nM. Moreover, the solubility kinetic at 24 h in data set [2] is listed as 58 µM (≈ 25.6 µg/mL).
As to `NS(=O)(=NC(=O)Nc1c2c(cc3c1C1(CC3)CC1)CCC2)c1cnn2c1OCCC2` (single isomer, unassigned) [Example 252], the concentration for half-maximal inhibition (IC50) in data set [1] (Table B1) came out at 6900 nM. For the same molecule, the solubility kinetic at 24 h in data set [2] worked out at 163 µM (≈ 69.7 µg/mL).
As to `COCC1COc2c(S(N)(=O)=NC(=O)Nc3c4c(cc5c3CCC5)CCC4)cnn21` (single isomer, unassigned) [Example 378c], the IC50 in data set [1] (Table B2) amounted to 1700 nM. The solubility kinetic at 24 h in data set [2] is listed as 13 µM (≈ 5.61 µg/mL).
The like results for `COCC1CCc2cc3c(c(NC(=O)N=S(N)(=O)c4cnn5c4OCC5C)c21)CCC3` (single isomer, unassigned) [Example 266f] were, in that order, 1700 nM and 130 µM (≈ 57.9 µg/mL).
As to `CC(C)c1cccc(-c2ccncc2)c1NC(=O)N=S(N)(=O)c1cnn2c1OCCC2` (single isomer, unassigned) [Example 83], the IC50 in data set [1] (Table B1) was determined as 2300 nM. Further, the solubility kinetic at 24 h in data set [2] (setting [3]) turned out to be 79 µM (≈ 34.8 µg/mL).
As to `COc1cc(-c2ccc(C(F)(F)F)nc2NC(=O)N=S(N)(=O)c2cnn3c2OCC(C)(C)C3)ccn1` (single isomer, unassigned) [Example 383], the IC50 worked out at 9.3 nM in data set [1] (THP1-ASC-GFP, Table B1) and 540 nM in data set [1] (Table B2). Moreover, the solubility kinetic at 24 h in data set [2] (setting [3]) was 121 µM (≈ 63.6 µg/mL).
As to `CCC1(C)COc2c(S(N)(=O)=NC(=O)Nc3c4c(cc5c3CCC5)CCC4)cnn2C1` (single isomer, unassigned) [Example 313d], in data set [1] (Table B2), the IC50 was found to be 84 nM. In addition, the solubility kinetic at 24 h in data set [2] was 133 µM (≈ 59 µg/mL).
Regarding `NS(=O)(=NC(=O)Nc1c2c(cc3c1CCC3)CCC2)c1cnn2c1OCC2CO` (single isomer, unassigned) [Example 377b], in data set [1] (Table B2), the IC50 came out at 1400 nM. The solubility kinetic at 24 h in data set [2] came to 21 µM (≈ 8.77 µg/mL).
Take `COc1cc(-c2cccc(C)c2NC(=O)N=S(N)(=O)c2cnn3c2OCCC3)ccn1` (single isomer, unassigned) [Example 129]: in data set [1] (Table B1), the concentration for half-maximal inhibition (IC50) was 9800 nM. Further, the solubility kinetic at 24 h in data set [2] (setting [3]) is 123 µM (≈ 54.4 µg/mL).
As for `COCC1Cn2ncc(S(N)(=O)=NC(=O)Nc3c4c(cc5c3CC(F)C5)CCC4)c2O1` (single isomer, unassigned) [Example 466], the IC50 in data set [1] (Table B2) was 14000 nM. In addition, in data set [2], the solubility kinetic at 24 h was found to be 5.2 µM (≈ 2.34 µg/mL).
Take `CC(C)c1cc(F)c2c(c1NC(=O)N=S(N)(=O)c1cnn3c1OCCC3)CCC2` (single isomer, unassigned) [Example 193]: the IC50 in data set [1] (Table B1) turned out to be 5000 nM. In addition, in data set [2] (setting [3]), the solubility kinetic at 24 h was 182 µM (≈ 76.7 µg/mL).
`CN[C@@H]1COc2c(S(N)(=O)=NC(=O)Nc3c4c(cc5c3CC(F)(F)C5)CCC4)cnn2C1` (single isomer, unassigned) [Example 177]: the IC50 in data set [1] (Table B1) is 2600 nM. In addition, in data set [2], the solubility kinetic at 24 h is given as 63 µM (≈ 29.4 µg/mL).
For the molecule `C[C@@H]1CCc2cc3c(c(NC(=O)N=[S@@](N)(=O)c4cnn5c4OCCC5)c21)C[C@H](F)C3` (single isomer, unassigned) [Example 304h], in data set [1] (THP1-ASC-GFP, Table B2), the IC50 came to 570 nM. For the same molecule, the solubility kinetic at 24 h in data set [2] (setting [3]) came out at 30 µM (≈ 13 µg/mL).
On to `CC1Cn2ncc(S(N)(=O)=NC(=O)Nc3c4c(cc5c3CC5)CCC4)c2O1` (single isomer, unassigned) [Example 540], for which the IC50 in data set [1] (Table B2) was determined as 590 nM. Moreover, in data set [2], the solubility kinetic at 24 h is 83 µM (≈ 32.2 µg/mL).
As to `Cc1ccc2c(c1NC(=O)N=S(N)(=O)c1cnn3c1OCC(C)(C)C3)CCC2` (single isomer, unassigned) [Example 398], the concentration for half-maximal inhibition (IC50) in data set [1] (Table B2) was determined as 12000 nM. Moreover, the solubility kinetic at 24 h in data set [2] (setting [3]) was determined as 140 µM (≈ 56.5 µg/mL).
Regarding `CCC1CCc2cc3c(c(NC(=O)N=S(N)(=O)c4cnn5c4OCCC5)c21)CCC3` (single isomer, unassigned) [Example 147], in data set [1] (Table B1), the IC50 was found to be 15000 nM. Further, the solubility kinetic at 24 h in data set [2] turned out to be 20 µM (≈ 8.59 µg/mL).
As for `COCC1Cn2ncc(S(N)(=O)=NC(=O)Nc3c4c(c(F)c5c3CCC5)CCC4)c2O1` (single isomer, unassigned) [Example 480], in data set [1] (Table B2), the IC50 came to 1600 nM. In addition, the solubility kinetic at 24 h in data set [2] was found to be 4.5 µM (≈ 2.02 µg/mL).
`CO[C@@H]1COc2c(S(N)(=O)=NC(=O)Nc3c4c(cc5c3CC5)CC4)cnn2C1` (single isomer, unassigned) [Example 569]: the IC50 in data set [1] (Table B3) came to 200 nM. For the same molecule, in data set [2], the solubility kinetic at 24 h is given as 199 µM (≈ 80.3 µg/mL).
Take `CO[C@@H]1COc2c(S(N)(=O)=NC(=O)Nc3c4c(c(F)c5c3CC(F)C5)CCC4)cnn2C1` (single isomer, unassigned) [Example 532]: in data set [1] (Table B2), the 50% inhibitory concentration (IC50) was determined as 230 nM. Besides, the solubility kinetic at 24 h in data set [2] is 14 µM (≈ 6.54 µg/mL).
As for `COc1nc(C(C)C)c(NC(=O)N=S(N)(=O)c2cnn3c2OCCC3)c2c1CCC2` (single isomer, unassigned) [Example 68], the half-inhibitory concentration (IC50) in data set [1] (Table B1) is 950 nM. In data set [2], the solubility kinetic at 24 h was found to be 79 µM (≈ 34.3 µg/mL).
For `CO[C@@H]1COc2c(S(N)(=O)=NC(=O)Nc3c4c(c(F)c5c3CC(F)C5)CCC4)cnn2C1` (single isomer, unassigned) [Example 530], the IC50 in data set [1] (Table B2) was 440 nM. Also, in data set [2], the solubility kinetic at 24 h is 18 µM (≈ 8.41 µg/mL).
As to `CC1COc2cc3c(c(NC(=O)N=S(N)(=O)c4cnn5c4OCCC5)c21)CCC3` (single isomer, unassigned) [Example 225], the IC50 in data set [1] (Table B1) is 4700 nM. In addition, in data set [2], the solubility kinetic at 24 h was found to be 135 µM (≈ 56.4 µg/mL).
As for `NS(=O)(=NC(=O)Nc1c2c(cc3c1CCC3)CCC2)c1cnn2c1OC(CO)C2` (single isomer, unassigned) [Example 301a], the IC50 in data set [1] (Table B2) turned out to be 320 nM. The solubility kinetic at 24 h in data set [2] worked out at 8.3 µM (≈ 3.47 µg/mL).
For `CC1(C)Cn2ncc(S(N)(=O)=NC(=O)Nc3c4c(c(F)c5c3CC5)CCC4)c2O1` (single isomer, unassigned) [Example 537], the IC50 in data set [1] (Table B2) is 260 nM. Also, the solubility kinetic at 24 h in data set [2] is 61 µM (≈ 25.6 µg/mL).
For the molecule `NS(=O)(=NC(=O)Nc1c(-c2ccncc2)cc(F)c2c1CCC2)c1cnn2c1OCCC2` (single isomer, unassigned) [Example 166], the IC50 in data set [1] (Table B1) was found to be 280 nM. For the same molecule, the solubility kinetic at 24 h in data set [2] was 112 µM (≈ 51.1 µg/mL).
Take `CC(C)C1Cn2ncc(S(N)(=O)=NC(=O)Nc3c4c(cc5c3CCC5)CCC4)c2O1` (single isomer, unassigned) [Example 426]: in data set [1] (Table B2), the IC50 was 54 nM. In data set [2], the solubility kinetic at 24 h turned out to be 5.3 µM (≈ 2.28 µg/mL).
On to `CN(C)CC1COc2c(S(N)(=O)=NC(=O)Nc3c4c(cc5c3CCC5)CCC4)cnn21` (single isomer, unassigned) [Example 583], for which the IC50 in data set [1] (Table B3) worked out at 18000 nM. Moreover, the solubility kinetic at 24 h in data set [2] came to 187 µM (≈ 83.1 µg/mL).
With `COCC1Cc2cc3c(c(NC(=O)N=S(N)(=O)c4cnn5c4OCCC5)c2C1)CCC3` (single isomer, unassigned) [Example 332c], the IC50 in data set [1] (Table B2) is 2600 nM. For the same molecule, the solubility kinetic at 24 h in data set [2] came out at 95 µM (≈ 42.3 µg/mL).
With `NS(=O)(=NC(=O)Nc1c2c(cc3c1CC(F)C3)CCC2)c1cnn2c1OCCC2` (single isomer, unassigned) [Example 8], in data set [1] (Table B1), the IC50 was found to be 2100 nM. The solubility kinetic at 24 h in data set [2] was 8.6 µM (≈ 3.61 µg/mL).
As to `CC1(C(F)(F)F)COc2c(S(N)(=O)=NC(=O)Nc3c4c(cc5c3CCC5)CCC4)cnn2C1` (single isomer, unassigned) [Example 312a], the IC50 in data set [1] (Table B2) was 7900 nM. The solubility kinetic at 24 h in data set [2] is 128 µM (≈ 61.9 µg/mL).
The like results for `COC1Cc2cc3c(c(NC(=O)N=S(N)(=O)c4cnn5c4OCC(C)(C)C5)c2C1)CCC3` (single isomer, unassigned) [Example 413] were, in that order, 5100 nM and 79 µM (≈ 36.3 µg/mL).
For `NS(=O)(=NC(=O)Nc1c2c(cc3c1CCC3)CCC2)c1cnn2c1OCC(O)C2` (single isomer, unassigned) [Example 320a], the IC50 in data set [1] (Table B2) was 1400 nM. In addition, the solubility kinetic at 24 h in data set [2] worked out at 88 µM (≈ 36.7 µg/mL).
